Experimental data taken from patent publication US11046688B2, “Inhibitor compounds” (Cancer Research Technology Limited, priority 2012, dated 2021).

Molecular target: full length MPS1 (Homo sapiens (Human), UniProt P33981)
Experiment: Measurement of Inhibition of MPS1 Kinase (Caliper EZ reader, fluorescent labelled peptide H236)
Assay type: biochemical
Settings: full length MPS1 12.5 nM or 3 nM, H236 peptide 5 μM, ATP 10 μM, 60 min at room temperature
Description: The reaction was carried out for 60 min at room temperature and stopped by the addition of buffer (10 μl) containing 20 mM EDTA, 0.05% (v/v) Brij-35, in 0.1M HEPES-buffered saline (Free acid, Sigma. UK). The plate was read on a Caliper EZ reader II (Caliper Life Sciences).
The % inhibition of the compounds is calculated relative to the means of selected control wells. […] The % inhibitions at each concentration are then fitted to a 4 parameter logistic fit: y=(a+((b−a)/(1+((c/x^d)))) where a=asym min, b=asym max, c=IC50 and d=hill coefficient

Chain of full length MPS1 (P33981 whole entry): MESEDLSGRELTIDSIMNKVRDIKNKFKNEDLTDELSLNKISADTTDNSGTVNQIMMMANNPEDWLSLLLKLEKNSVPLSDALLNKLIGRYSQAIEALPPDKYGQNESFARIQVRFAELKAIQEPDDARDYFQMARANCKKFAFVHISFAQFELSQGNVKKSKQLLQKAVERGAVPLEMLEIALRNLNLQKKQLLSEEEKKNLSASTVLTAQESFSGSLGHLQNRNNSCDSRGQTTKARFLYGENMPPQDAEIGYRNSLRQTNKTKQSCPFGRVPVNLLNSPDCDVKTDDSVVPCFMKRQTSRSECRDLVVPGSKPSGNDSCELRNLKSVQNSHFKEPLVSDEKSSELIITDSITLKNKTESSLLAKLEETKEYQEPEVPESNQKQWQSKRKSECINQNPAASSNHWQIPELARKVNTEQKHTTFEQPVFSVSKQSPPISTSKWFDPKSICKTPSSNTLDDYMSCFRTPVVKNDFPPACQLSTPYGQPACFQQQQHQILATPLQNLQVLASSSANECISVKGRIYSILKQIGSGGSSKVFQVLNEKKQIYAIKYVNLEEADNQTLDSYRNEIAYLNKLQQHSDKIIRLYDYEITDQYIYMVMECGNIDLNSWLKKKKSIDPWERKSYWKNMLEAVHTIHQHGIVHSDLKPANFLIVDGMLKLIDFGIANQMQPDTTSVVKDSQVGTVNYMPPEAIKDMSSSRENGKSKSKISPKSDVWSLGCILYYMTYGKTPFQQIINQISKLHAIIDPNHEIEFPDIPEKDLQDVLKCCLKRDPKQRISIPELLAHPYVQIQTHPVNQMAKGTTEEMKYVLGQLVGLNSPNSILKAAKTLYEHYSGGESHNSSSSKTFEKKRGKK

SMILES | IC50 [nM]
COc1cc(-c2cn(C)nc2C)ccc1Nc1ncc2ccnc(NCC(C)(C)C)c2n1 [Example 48, N2-(4-(1,3-dimethyl-1H-pyrazol-4-yl)-2-methoxyphenyl)-N8-neopentylpyrido[3,4-d]pyrimidine-2,8-diamine] | 5
COc1cc(-c2cnn(C)c2C)ccc1Nc1ncc2ccnc(NCC(C)(C)C)c2n1 [Example 49, N2-(4-(1,5-dimethyl-1H-pyrazol-4-yl)-2-methoxyphenyl)-N8-neopentylpyrido[3,4-d]pyrimidine-2,8-diamine] | 5
COc1cc(-c2cnn(C)c2)ccc1Nc1ncc2c(C)cnc(NCC(C)(C)C)c2n1 [Example 149, N^2-(2-methoxy-4-(1-methyl-1H-pyrazol-4-yl)phenyl)-5-methyl-N^8-neopentylpyrido[3,4-d]pyrimidine-2,8-diamine] | 34
COc1nc(-c2nnnn2C)ccc1Nc1ncc2ccnc(NCC(C)(C)OC)c2n1 [Example 161, N^8-(2-Methoxy-2-methylpropyl)-N^2-(2-methoxy-6-(1-methyl-1H-tetrazol-5-yl)pyridin-3-yl)pyrido[3,4-d]pyrimidine-2,8-diamine] | 31
